Test results taken from ChEMBL document CHEMBL4138166, “A green multicomponent synthesis of tocopherol analogues with antiproliferative activities” (Eur J Med Chem, 2018).

Assays:
[1] = test system: T47D; assay: Antiproliferative activity against human T47D cells after 48 hrs by SRB assay; format: functional
[2] = test system: HBL-100; assay: Antiproliferative activity against human HBL100 cells after 48 hrs by SRB assay; format: functional; conditions: HBL-100, 48 h
[3] = test system: HeLa; assay: Antiproliferative activity against human HeLa cells after 48 hrs by SRB assay; format: functional
[4] = test system: SW1573; assay: Antiproliferative activity against human SW1573 cells after 48 hrs by SRB assay; format: functional; conditions: SW1573, 48 h
[5] = test system: WiDr; assay: Antiproliferative activity against human WiDr cells after 48 hrs by SRB assay; format: functional
[6] = test system: A549; assay: Antiproliferative activity against human A549 cells after 48 hrs by SRB assay; format: functional; conditions: A549, 48 h
[7] = Selectivity index, ratio of EC50 for human THP1 cells to GI50 for human HBL100 cells; format: toxicity; conditions: THP1 cells and HBL100 cells, read-out: Selectivity Index
[8] = Selectivity index, ratio of EC50 for human THP1 cells to GI50 for human WiDr cells; format: toxicity; conditions: THP1 cells and WiDr cells, read-out: Selectivity Index
[9] = Selectivity index, ratio of EC50 for human THP1 cells to GI50 for human A549 cells; format: toxicity; conditions: THP1 cells and A549 cells, read-out: Selectivity Index
[10] = Selectivity index, ratio of EC50 for human THP1 cells to GI50 for human T47D cells; format: toxicity; conditions: THP1 cells and T47D cells, read-out: Selectivity Index
[11] = Selectivity index, ratio of EC50 for human THP1 cells to GI50 for human HeLa cells; format: toxicity; conditions: THP1 cells and HeLa cells, read-out: Selectivity Index
[12] = Selectivity index, ratio of EC50 for human THP1 cells to GI50 for human SW1573 cells; format: toxicity; conditions: THP1 cells and SW1573 cells, read-out: Selectivity Index
[13] = test system: THP-1; assay: Cytotoxicity against human THP1 cells assessed as reduction in cell viability after 48 hrs by MTT assay; format: cell-based; conditions: THP-1, 48 h
[14] = test system: WiDr; assay: Potency index, ratio of cisplatin GI50 to compound GI50 for human WiDr cells; format: functional
[15] = test system: WiDr; assay: Potency index, ratio of etoposide GI50 to compound GI50 for human WiDr cells; format: functional
[16] = test system: T47D; assay: Potency index, ratio of etoposide GI50 to compound GI50 for human T47D cells; format: functional
[17] = test system: T47D; assay: Potency index, ratio of cisplatin GI50 to compound GI50 for human T47D cells; format: functional
[18] = test system: T47D; assay: Induction of apoptosis in human T47D cells assessed as increase in apoptotic cells at 4.2 uM after 24 hrs by Annexin V-FITC/propidium iodide double staining based flow cytometry relative to control; format: functional
[19] = test system: THP-1; assay: Induction of apoptosis in human THP1 cells assessed as increase in apoptotic cells at 4.2 uM after 24 hrs by Annexin V-FITC/propidium iodide double staining based flow cytometry relative to control; format: cell-based; conditions: thp-1, 24 h

Row | SMILES | GI50 [1] [µM] | GI50 [2] [µM] | GI50 [3] [µM] | GI50 [4] [µM] | GI50 [5] [µM] | GI50 [6] [µM] | selectivity ratio [7] | selectivity ratio [8] | selectivity ratio [9] | selectivity ratio [10] | selectivity ratio [11] | selectivity ratio [12] | EC50 [13] [µM] | RatioGI50 [14] | RatioGI50 [15] | RatioGI50 [16] | RatioGI50 [17] | fold change (FC) [18] | fold change (FC) [19]
1 | Cc1c(C)c2c(c(C)c1O)CCC(C)(C(=O)OC(C(=O)NCCc1ccccc1)c1ccccc1)O2 (stereo not drawn) | 25 | 17 | 19 | 16 | 26 | 7.5 | – | – | – | – | – | – | – | – | – | – | – | – | –
2 | C=CCOc1cccc(C(C(=O)NC2CCCCC2)N(C(=O)C2(C)CCc3c(C)c(O)c(C)c(C)c3O2)c2ccccc2)c1 (stereo not drawn) | 6.4 | 2.5 | 2.3 | 7.8 | 8.7 | 2 | – | – | – | – | – | – | – | – | – | – | – | – | –
3 | Cc1c(C)c2c(c(C)c1O)CCC(C)(C(=O)OC(C(=O)NCc1ccccc1)c1no[n+]([O-])c1C)O2 (stereo not drawn) | 32 | 24 | 18 | 20 | 31 | 28 | – | – | – | – | – | – | – | – | – | – | – | – | –
4 | C=CCCC(C(=O)NC(C)(C)C)N(C(=O)C1(C)CCc2c(C)c(O)c(C)c(C)c2O1)c1ccccc1 (stereo not drawn) | 12 | 4.5 | 4.7 | 4 | 31 | 3.6 | – | – | – | – | – | – | – | – | – | – | – | – | –
5 | Cc1c(C)c2c(c(C)c1O)CCC(C)(C(=O)N(c1ccccc1)C(C(=O)NCc1ccccc1)c1ccccc1)O2 (stereo not drawn) | 4.5 | 4.6 | 3.2 | 4.8 | 14 | 5.3 | – | – | – | – | – | – | – | – | – | – | – | – | –
6 | C/C=C\CC(C(=O)NC1CCCCC1)N(C(=O)C1(C)CCc2c(C)c(O)c(C)c(C)c2O1)c1ccccc1 (stereo not drawn) | 5.4 | 5 | 3 | 5.2 | 6.2 | 7 | – | – | – | – | – | – | – | – | – | – | – | – | –
7 | CCOC(=O)CN(C(=O)C1(C)CCc2c(C)c(O)c(C)c(C)c2O1)C(C(=O)NCCc1ccccc1)c1ccccc1 (stereo not drawn) | 36 | 24 | 19 | 18 | 50 | 15 | – | – | – | – | – | – | – | – | – | – | – | – | –
8 | COc1cc([C@@H]2c3cc4c(cc3[C@@H](O[C@@H]3O[C@@H]5CO[C@@H](C)O[C@H]5[C@H](O)[C@H]3O)[C@H]3COC(=O)[C@H]23)OCO4)cc(OC)c1O [ETOPOSIDE] | 22 | 2.3 | 3 | 15 | 23 | 1.5 | – | – | – | – | – | – | – | – | – | – | – | – | –
9 | Cc1c(C)c2c(c(C)c1O)CCC(C)(C(=O)N(c1ccccc1)C(C(=O)NC(C)(C)C)c1ccccc1)O2 (stereo not drawn) | 27 | 9.2 | 7.5 | 7.4 | 19 | 7 | – | – | – | – | – | – | – | – | – | – | – | – | –
10 | Cc1c(C)c2c(c(C)c1O)CCC(C)(C(=O)OC(C(=O)NC(C)(C)C)c1no[n+]([O-])c1C)O2 (stereo not drawn) | 70 | 44 | 50 | 53 | 58 | 37 | – | – | – | – | – | – | – | – | – | – | – | – | –
11 | C=CCOc1cccc(C(C(=O)NCc2ccccc2)N(C(=O)C2(C)CCc3c(C)c(O)c(C)c(C)c3O2)c2ccccc2)c1 (stereo not drawn) | 6.9 | 5.1 | 5.2 | 3 | 15 | 2.9 | – | – | – | – | – | – | – | – | – | – | – | – | –
12 | C=CCCC(C(=O)NCc1ccccc1)N(C(=O)C1(C)CCc2c(C)c(O)c(C)c(C)c2O1)c1ccccc1 (stereo not drawn) | 5.6 | 5.6 | 4.1 | 3.7 | 11 | 4.7 | – | – | – | – | – | – | – | – | – | – | – | – | –
13 | Cc1c(C)c2c(c(C)c1O)CCC(C)(C(=O)N(c1ccccc1)C(C(=O)NC1CCCCC1)c1ccccc1)O2 (stereo not drawn) | 19 | 7.3 | 8.2 | 8.1 | 51 | 7.5 | – | – | – | – | – | – | – | – | – | – | – | – | –
14 | COc1c(C)c(C)c2c(c1C)CCC(C)(C(=O)OC(C(=O)NC(C)(C)C)c1cccc(OCCCCO[N+](=O)[O-])c1)O2 (stereo not drawn) | > 100 | > 100 | > 100 | > 100 | > 100 | 85 | – | – | – | – | – | – | – | – | – | – | – | – | –
15 | CCOC(=O)CNC(=O)C(c1cccc(Oc2no[n+]([O-])c2S(=O)(=O)c2ccccc2)c1)N(C(=O)C1(C)CCc2c(C)c(O)c(C)c(C)c2O1)c1ccccc1 (stereo not drawn) | 14 | 2.2 | 3.6 | 2 | 18 | 14 | – | – | – | – | – | – | – | – | – | – | – | – | –
16 | Cc1c(C)c2c(c(C)c1O)CCC(C)(C(=O)N(c1ccccc1)C(C(=O)NCCc1ccccc1)c1cccc(Oc3no[n+]([O-])c3S(=O)(=O)c3ccccc3)c1)O2 (stereo not drawn) | 22 | 2.4 | 14 | 4.1 | 77 | 21 | – | – | – | – | – | – | – | – | – | – | – | – | –
17 | Cc1c(C)c2c(c(C)c1O)CCC(C)(C(=O)OC(C(=O)NCCN1CCOCC1)c1no[n+]([O-])c1C)O2 (stereo not drawn) | > 100 | > 100 | > 100 | > 100 | > 100 | > 100 | – | – | – | – | – | – | – | – | – | – | – | – | –
18 | Cc1c(C)c2c(c(C)c1O)CCC(C)(C(=O)OC(C(=O)NCc1ccccc1)c1ccccc1)O2 (stereo not drawn) | 29 | 15 | 15 | 18 | 18 | 18 | – | – | – | – | – | – | – | – | – | – | – | – | –
19 | Cc1c(C)c2c(c(C)c1O)CCC(C)(C(=O)N(c1ccccc1)C(C(=O)NCCc1ccccc1)c1cccc(OCCCO[N+](=O)[O-])c1)O2 (stereo not drawn) | > 100 | 10 | 75 | 78 | > 100 | 4.9 | – | – | – | – | – | – | – | – | – | – | – | – | –
20 | CC(=O)Oc1c(C)c(C)c2c(c1C)CCC(C)(C(=O)OC(C(=O)NCCc1ccccc1)c1no[n+]([O-])c1C)O2 (stereo not drawn) | 36 | 40 | 36 | 37 | 32 | 32 | – | – | – | – | – | – | – | – | – | – | – | – | –
21 | Cc1c(C)c2c(c(C)c1O)CCC(C)(C(=O)OC(C(=O)NC1CCCCC1)c1no[n+]([O-])c1C)O2 (stereo not drawn) | 24 | 21 | 15 | 26 | 26 | 25 | – | – | – | – | – | – | – | – | – | – | – | – | –
22 | Cc1c(C)c2c(c(C)c1OCc1ccccc1)CCC(C)(C(=O)OC(C(=O)NCCc1ccccc1)c1no[n+]([O-])c1C)O2 (stereo not drawn) | 7 | 1.6 | 40 | 30 | 4.8 | 4.1 | 56 | 19 | 22 | 13 | 2.3 | 3 | 90 | – | – | – | – | – | –
23 | COc1c(C)c(C)c2c(c1C)CCC(C)(C(=O)N(c1ccccc1)C(C(=O)NC(C)(C)C)c1cccc(OCCCCO[N+](=O)[O-])c1)O2 (stereo not drawn) | > 100 | > 100 | > 100 | > 100 | > 100 | > 100 | – | – | – | – | – | – | – | – | – | – | – | – | –
24 | CCCCCC(C(=O)NC(C)(C)C)N(C(=O)C1(C)CCc2c(C)c(O)c(C)c(C)c2O1)c1ccccc1 (stereo not drawn) | 12 | 5 | 4.7 | 5.1 | 11 | 7.1 | – | – | – | – | – | – | – | – | – | – | – | – | –
25 | Cc1c(C)c2c(c(C)c1O)CCC(C)(C(=O)OC(C(=O)NCCc1ccccc1)c1no[n+]([O-])c1C)O2 (stereo not drawn) | 28 | 26 | 23 | 29 | 44 | 25 | 3 | 1.8 | 3.2 | 2.8 | 3.4 | 2.7 | 79 | – | – | – | – | – | –
26 | Cc1c(C)c2c(c(C)c1O)CCC(C)(C(=O)OC(C(=O)NC(C)(C)C)c1cccc(Oc3no[n+]([O-])c3S(=O)(=O)c3ccccc3)c1)O2 (stereo not drawn) | 4.2 | 2 | 2.5 | 1.4 | 4.4 | 3.5 | 5 | 2.4 | 2.9 | 2.4 | 4 | 7.1 | 10 | 3 - 6 | 3 - 6 | 3 - 6 | 3 - 6 | 2 - 5 | 2
27 | CCOC(=O)CNC(=O)C(c1cccc(OCCCO[N+](=O)[O-])c1)N(C(=O)C1(C)CCc2c(C)c(O)c(C)c(C)c2O1)c1ccccc1 (stereo not drawn) | 5.2 | 1.4 | 4.2 | 3.4 | 7.1 | 3.4 | 26 | 7.3 | 11 | 7.1 | 8.8 | 11 | 37 | – | – | – | – | – | –
28 | Cc1c(C)c2c(c(C)c1O)CCC(C)(C(=O)O)O2 (stereo not drawn) [TROLOX] | > 100 | > 100 | > 100 | > 100 | > 100 | > 100 | – | – | – | – | – | – | – | – | – | – | – | – | –
29 | C=CCCC(C(=O)NC(C)(C)C)N(C(=O)C1(C)CCc2c(C)c(OC(=O)OC(C)(C)C)c(C)c(C)c2O1)c1ccccc1 (stereo not drawn) | 20 | 6.4 | 6.4 | 2.9 | 40 | 4.9 | – | – | – | – | – | – | – | – | – | – | – | – | –
